Source: PMC12507957 (Drug Delivery and Translational Research, 2025)
Like-named read-outs stand apart in the source and are kept apart here.

Columns and labels:
[1] = Forced degradation studies of MTG; assay type: physicochemical; details: over 24 h
Experimental: Samples were taken at 6, 12 and 24 h for dissolution and/or dilution before HPLC analysis (Sect. HPLC analysis).
(§1) Samples were analysed using Shimadzu liquid chromatographic system (Kyoto, Japan) with SPD-20A UV–vis detector set at 254 nm. A reverse phase ZORBAX Eclipse Plus C18 column (Agilent Technologies, 150 × 4.6 mm ID × 3.5 μm) coupled with a C18 guard column (Phenomenex SecurityGuard™, 4 × 3.0 mm ID × 5 μm) was employed as the stationary phase. A gradient elution method with acetonitrile and 0.1%v/v of formic acid as the mobile phase (30:70 to 70:30 (v/v) over 1 min and held until 4 min; then returned to 30:70 (v/v) from 4 to 6 min and held up until 10 min) at a flow rate of 1.2 mL/min was used. The injection volume was set at 100 μL and the total run time was 10 min with a retention time of ~ 4 min.

[2] = Stability studies of MTG in simple solvent systems with and without BHT; assay type: physicochemical
Experimental: as §1, with “min. The limits of detection and quantification were 0.47 and 1.43 μg/mL for a lower concentration drug range (0.5–10 μg/mL) and 4.29 and 13.01 μg/mL for a higher concentration drug range (10–175 μg/mL), respectively. The linearity for both calibration curves was excellent (R^2 > 0.999).” for “min.”

[3] = rats; cited from earlier work
[4] = cited from earlier work
[5] = In vitro drug release of MTG from gels (Franz cell); details: nylon membrane, time point not clearly stated (steady release up to 2 h)
Experimental: (§2) The in vitro permeation study was performed in triplicate using Franz diffusion cell apparatus with a diffusion area of ~ 0.8 cm^2 and a receptor volume of ~ 3 mL. The porcine skin was thawed at room temperature and cut into an appropriate size before mounting on the Franz diffusion cells. The receptor compartment was filled with PBS containing 0.02%w/v of sodium azide and a selected antioxidant. The Franz diffusion cells were placed into a water bath to maintain the skin temperature at 32 ± 0.5 °C. […] After 48-h permeation studies, the mass balance studies were performed. The samples were extracted for MTG content overnight before HPLC analysis.
(§3) BHT at the optimised concentration was also added accordingly. The gels were evaluated for their drug content by mixing the gel in methanol for overnight extraction of MTG before HPLC analysis (Sect. HPLC analysis). In vitro drug release studies were carried out with a similar experimental setup as described in Sect. In vitro permeation and mass balance studies but porcine skin was replaced with a 0.45 µm nylon membrane filter and 40 μL of gel was loaded on the membrane at the donor compartment. Subsequent in vitro permeation and mass balance studies were performed as described in Sect. In vitro permeation and mass balance studies by loading 40 μL of the gel on the skin.

[6] = Mass balance studies after skin permeation of MTG gels; assay type: in vitro ADME, porcine; details: pig
Experimental: as §2
Immediately post-application, any remaining MTG was swabbed from the skin surface with cotton buds and added into an Eppendorf tube. Subsequently, the surface of the skin was washed twice with 500 μL of methanol before adding to the same Eppendorf tube containing the cotton buds. The skin was removed from the dissembled Franz diffusion cell and cut into pieces before placing in another Eppendorf tube containing 1 mL of methanol. All samples were vortexed and analysed using HPLC (Sect. HPLC analysis).
as §3

[7] = In vitro skin permeation of MTG from gel formulations, with infinite dose model fitting; assay type: in vitro ADME, porcine; details: for Permeation (cumulative amount of MTG permeated): 48 h
Experimental: as §2
To estimate the permeation parameters (P1 and P2), the in vitro permeation data were fitted to the infinite dose model (Eq. 1) using non-linear least squares. This infinite dose model was obtained by solving the diffusion equation using Laplace transform, which was subsequently numerically inverted using Weeks method and fitted to in Python 3.13.3 (Python Software Foundation, Wilmington, DE, US).1 Q¯s=J·A/s=P1ACd/ss/P2sinhs/P2
Here, Q¯s is the cumulative amount of drug permeated, J is the permeation flux, A is the permeation area, Cd is the initial concentration, h is the membrane thickness and s is the Laplace variable. The apparent partition and apparent diffusion coefficients, P1 and P2, are related to the h and the diffusion (D) and partition (K) coefficients, as defined in Eq. 2 and Eq. 3 [32]. The goodness of fit was measured based on the coefficient of determination (R^2) and root mean square error (RMSE).2 P1=Kh 3 P2=D/h^2
The permeability coefficient (Kp), steady-state flux (Jss) and lag time (tlag) can then be calculated using Eqs. 4, 5, and 6 [33] with the estimated values of P1 and P2 from the curve fitting.4 Kp=P1P2 5 Jss=KpCd 6 tlag=h^2/6D
Other permeation parameters were determined experimentally, where A was 0.7–0.8 cm^2, h was 0.0586 cm, Cd was 50 mg/mL and the volume of drug loaded was 40 µL.
as §3

SMILES: CC[C@@H]1CN2CCc3c([nH]c4cccc(OC)c34)[C@@H]2C[C@@H]1/C(=C\OC)C(=O)OC [MTG, mitragynine]
- Degradation of MTG ([1]; oxidative and alkaline conditions): ~ 95%
- Degradation of MTG ([1]; thermal degradation): ~ 90%
- Percentage recovery of MTG ([2]; 200 μg/mL in DMSO without BHT, 32 °C, after 96 h): 67.68 ± 1.22%
- Percentage recovery of MTG ([2]; 200 μg/mL in Labrasol with 0.01%w/v BHT, 32 °C, after 96 h): 46.34 ± 2.49%
- Percentage recovery of MTG ([2]; 200 μg/mL in Labrasol without BHT, 32 °C, after 96 h): 4.39 ± 0.70%
- Percentage recovery of MTG ([2]; 200 μg/mL in Lauroglycol without BHT, 32 °C, after 96 h): 30.84 ± 1.21%
- Percentage recovery of MTG ([2]; 200 μg/mL in Maisine without BHT, 32 °C, after 96 h): 19.65 ± 1.17%
- Percentage recovery of MTG ([2]; 200 μg/mL in PG without BHT, 32 °C, after 96 h): 73.82 ± 1.05%
- Percentage recovery of MTG ([2]; 200 μg/mL in Transcutol without BHT, 32 °C, after 96 h): 40.23 ± 5.46%
- Percentage recovery of MTG ([2]; DMSO, PG and Transcutol with at least 0.05%w/v of BHT): above 80%
- Percentage recovery of MTG ([2]; in all solvents (without BHT) after 96 h): < 80%
- Percentage recovery of MTG ([2]; remaining solvents (Transcutol, Lauroglycol, Maisine, Labrasol) without BHT, after 96 h): < 50%
- Oral bioavailability [3]: 3%
- MTG loss ([4]; basic environments (pH 8 and 10), 40 °C over 8 h): ≤ 20%
- MTG loss ([4]; pH 4 over 24 h): ~ 11.2%
- Drug release percentage ([5]; 1% MTG gel with DMSO): 65.07 ± 7.59%
- Drug release percentage ([5]; 1% MTG gel with PG): 57.45 ± 3.18%
- Drug release percentage ([5]; 1% MTG gel with Transcutol): 78.48 ± 6.17%
- recovery at 48 h, 1 % ([6]; 1% MTG gel with DMSO and BHT, read-out: Total percentage (mass balance recovery)): 81.3 ± 24.3%
- recovery at 48 h, 1 % ([6]; 1% MTG gel with PG and BHT, read-out: Total percentage (mass balance recovery)): 85.5 ± 16.1%
- recovery at 48 h, 1 % ([6]; 1% MTG gel with Transcutol and BHT, read-out: Total percentage (mass balance recovery)): 87.7 ± 10.8%
- recovery at 48 h, 1 % ([6]; all gel formulations (DMSO, PG, Transcutol) with BHT, read-out: Total drug recovery (mass balance)): > 80%
- Permeation (cumulative amount of MTG permeated) ([7]; 1% MTG gel with DMSO and BHT): 4.76 ± 0.79 μg/cm^2
- Jss (steady-state flux) ([7]; 1% MTG gel with PG and BHT): 0.95 μg/cm^2/h
- Permeation (cumulative amount of MTG permeated) ([7]; 1% MTG gel with PG and BHT): 4.92 ± 0.44 μg/cm^2
- Permeation (cumulative amount of MTG permeated) ([7]; 1% MTG gel with Transcutol and BHT): 3.95 ± 0.81 μg/cm^2
- tlag (lag time) ([7]; across all gel formulations): 9 to 14 h
- Papp at 1 % ([7]; pig, 1% MTG gel with DMSO and BHT, read-out: Kp (permeability coefficient) (converted)): 0.00447 ×10⁻⁶ cm/s
- Papp at 1 % ([7]; pig, 1% MTG gel with PG and BHT, read-out: Kp (permeability coefficient) (converted)): 0.00525 ×10⁻⁶ cm/s
- Papp at 48 h, 1 % ([7]; pig, 1% MTG gel with Transcutol and BHT, read-out: Kp (permeability coefficient) (converted)): 0.00376 ×10⁻⁶ cm/s
